For test [1], the target named is recombinant human Mcl-1 (residues 171-327) / Bim interaction (Homo sapiens (Human), UniProt Q07820). Description: biochemical. The format is binding. The conditions noted are these: read-out: Mcl-1 HTRF IC50.
Test [2] deals with human multiple myeloma cell line, OPM-2. Description: Cell viability assay (OPM-2 10 FBS), CellTiter-Glo. The format is cell-based. The method in brief: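 IC50 values come from 4-parameter logistic fits of luminescence signals reflecting cell viability. Treatment lasted 16 h at 37 °C in complete medium with 10% FBS, starting from 3000 cells/well.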
On the technique in general: Cellular ATP, detected with luciferase, serves as a proxy for viable cell number.

Setting [3] is: TR-FRET, Mcl-1(171-327) / biotin-Bim (51-76).
Where [4] appears, read: Homo sapiens, OPM-2, 16 h, read-out: OPM-2 10% FBS IC50 IP, OPM-2 cells, 10% FBS, 16 h, CellTiter-Glo.
Setting [5] is: 0.1 nM Mcl-1(171-327), 0.05 nM biotin-Bim (51-76).
Where [6] appears, read: Homo sapiens, OPM-2, 16 h, read-out: OPM-2 10% FBS IC50 IP, OPM-2 cells, 10% FBS, 16 h incubation.
The mark [7] stands for this setting: read-out: OPM-2 10% FBS IC50 IP, OPM-2 cells, 10% FBS, 16 h incubation.
Where [8] appears, read: read-out: OPM-2 10% FBS IC50 IP, OPM-2 cells, 10% FBS, 16 h, CellTiter-Glo.

Read-outs that look alike come from different tables or passages of the source.

As a reminder, the IC50 is the concentration at which inhibition is half-maximal.

recombinant human Mcl-1 (residues 171-327) / Bim interaction, sequence (Q07820 171-327): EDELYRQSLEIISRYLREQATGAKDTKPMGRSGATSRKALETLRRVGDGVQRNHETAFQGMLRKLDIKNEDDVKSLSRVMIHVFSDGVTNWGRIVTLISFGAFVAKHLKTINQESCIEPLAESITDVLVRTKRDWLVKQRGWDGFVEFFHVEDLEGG

On to `CO[C@@]1(Cc2nc(CN(C)C)c(C)o2)/C=C/C[C@H](C)[C@@H](C)S(=O)(=O)NC(=O)c2ccc3c(c2)N(C[C@@H]2CC[C@H]21)C[C@@]1(CCCc2cc(Cl)ccc21)CO3` [Example 100586, (1S,3′R,6′R,7′S,8′E,11′S,12′R)-6-chloro-7′-((4-((dimethylamino)methyl)-5-methyl-1,3-oxazol-2-yl)methyl)-7′-methoxy-11′,12′-dimethyl-3,4-dihydro-2H,15′H-spiro[naphthalene-1,22′-[20]oxa[13]thia[1,14]diazatetracyclo [14.7.2.0~3,6~.0~19,24~]pentacosa[8,16,18,24]tetraen]-15′-one 13′,13′-dioxide], for which the IC50 came to 0.074 nM in test [1] (setting [3]) and 453 nM in test [2] (setting [4]).
As to `CO[C@@]1(CN2CC3(C2)CS(=O)(=O)C3)/C=C/C[C@H](C)[C@@H](C)S(=O)(=O)NC(=O)c2ccc3c(c2)N(C[C@@H]2CC[C@H]21)C[C@@]1(CCCc2cc(Cl)ccc21)CO3` [Example 202, (1S,3′R,6′R,7′S,8′E,11′S,12′R)-6-chloro-7′-((2,2-dioxido-2-thia-6-azaspiro[3 .3]hept-6-yl)methyl)-7′-methoxy-11′,12′-dimethyl-3,4-dihydro-2H,15′H-spiro[naphthalene-1,22′-[20]oxa[13]thia[1,14]diazatetracyclo [14.7.2.0~3,6~.0~19,24~]pentacosa[8,16,18,24]tetraen]-15′-one 13′,13′-dioxide], the values for the IC50 in test [1] (setting [5]) and in test [2] (setting [6]) were 0.058 nM and 142 nM, respectively.
Turning to `C[C@@H]1[C@@H](C)CCC[C@@](O)(CN=[N+]=[N-])[C@@H]2CC[C@H]2CN2C[C@@]3(CCCc4cc(Cl)ccc43)COc3ccc(cc32)C(=O)NS1(=O)=O` (single isomer, unassigned) [Example 506], the results for the IC50 in test [1] (setting [5]) and in test [2] (setting [7]) were 3.8 nM and 7430 nM, respectively.
As for `C[C@@H]1[C@@H](C)C/C=C/[C@](O)(CC(=O)N(C)c2ccccc2)[C@@H]2CC[C@H]2CN2C[C@@]3(CCCc4cc(Cl)ccc43)COc3ccc(cc32)C(=O)NS1(=O)=O` (single isomer, unassigned) [Example 100248], the 50% inhibitory concentration (IC50) was 11.1 nM in test [1] (setting [3]) and 6680 nM in test [2] (setting [4]).
On to `CCN1CCN(C[C@@]2(OC)/C=C/C[C@H](C)[C@@H](C)S(=O)(=O)NC(=O)c3ccc4c(c3)N(C[C@@H]3CC[C@H]32)C[C@@]2(CCCc3cc(Cl)ccc32)CO4)CC1` [Example 88, (1S,3′R,6′R,7′R,8′E,11′S,12′R)-6-chloro-7′-((4-ethyl-1-piperazinyl)methyl)-7′-methoxy-11′,12′-dimethyl-3,4-dihydro-2H,15′H-spiro[naphthalene-1,22′-[20]oxa[13]thia[1,14]diazatetracyclo [14.7.2.0~3,6~.0~19,24~]pentacosa[8,16,18,24]tetraen]-15′-one 13′,13′-dioxide], for which the IC50 in test [1] (setting [5]) came to 0.139 nM; in test [2] (setting [6]), 74 nM.
For `C[C@@H]1[C@@H](C)C[C@@H]2C=CC[C@](O)(C2)[C@@H]2CC[C@H]2CN2C[C@@]3(CCCc4cc(Cl)ccc43)COc3ccc(cc32)C(=O)NS1(=O)=O` [Example 100056, (1S,3′R,6′R,7′S,11′S,13′S,14′R)-6-chloro-7′-hydroxy-13′,14′-dimethyl-3,4-dihydro-2H,17′H-spiro[naphthalene-1,24′-[22]oxa[15]thia[1,16]diazapentacyclo [16.7.2.1~7,11~.0~3,6~.0~21,26~]octacosa [9,18,20,26]tetraen]-17′-one 15′,15′-dioxide], the values for the IC50 in test [1] (setting [3]) and in test [2] (setting [4]) were 0.424 nM and 1680 nM, respectively.
Take `CO[C@]1(CN2CC(N3CCOCC3)C2)/C=C/C[C@H](C)[C@@H](C)S(=O)(=O)NC(=O)c2ccc3c(c2)N(C[C@@H]2CC[C@H]21)C[C@@]1(CCCc2cc(Cl)ccc21)CO3` [Example 84, (1S,3′R,6′R,7′R,8′E,11′S,12′R)-6-chloro-7′-methoxy-11′,12′-dimethyl-7′-((3-(4-morpholinyl)-1-azetidinyl)methyl)-3,4-dihydro-2H,15′H-spiro[naphthalene-1,22′-[20]oxa[13]thia[1,14]diazatetracyclo [14.7.2.0~3,6~.0~19,24~]pentacosa[8,16,18,24]tetraen]-15′-one 13′,13′-dioxide]: the IC50 amounted to 0.106 nM in test [1] (setting [5]) and 61 nM in test [2] (setting [6]).
With `CC[C@@]1(O)/C=C/C[C@H](C)[C@@H](C)S(=O)(=O)NC(=O)c2ccc3c(c2)N(C[C@@H]2CC[C@H]21)C[C@@]1(CCCc2cc(Cl)ccc21)CO3` [Example 100206, (1S,3′R,6′R,7′R,8′E,11′S,12′R)-6-chloro-7′-ethyl-7′-hydroxy-11′,12′-dimethyl-3,4-dihydro-2H,15′H-spiro[naphthalene-1,22′-[20]oxa[13]thia[1,14]diazatetracyclo [14.7.2.0~3,6~.0~19,24~]pentacosa[8,16,18,24]tetraen]-15′-one 13′,13′-dioxide], the concentration for half-maximal inhibition (IC50) was determined as 1.26 nM in test [1] (setting [3]) and 1750 nM in test [2] (setting [4]).
For `CCO[C@]1(CN2CCN(C3COC3)CC2)/C=C/[C@H](C)[C@H](C)CS(=O)(=O)NC(=O)c2ccc3c(c2)N(C[C@@H]2CC[C@H]21)C[C@@]1(CCCc2cc(Cl)ccc21)CO3` [Example 166, (1S,3′R,6′R,7′R,8′E,10′S,11′S)-6-chloro-7′-ethoxy-10′,11′-dimethyl-7′-((4-(3-oxetanyl)-1-piperazinyl)methyl)-3,4-dihydro-2H,15′H-spiro[naphthalene-1,22′-[20]oxa[13]thia[1,14]diazatetracyclo [14.7.2.0~3,6~.0~19,24~]pentacosa[8,16,18,24]tetraen]-15′-one 13′,13′-dioxide], the results for the IC50 in test [1] (setting [5]) and in test [2] (setting [6]) were 0.107 nM and 50 nM, respectively.
As to `CO[C@@]1(CCN2CCCCC2)/C=C/C[C@H](C)[C@@H](C)S(=O)(=O)NC(=O)c2ccc3c(c2)N(C[C@@H]2CC[C@H]21)C[C@@]1(CCCc2cc(Cl)ccc21)CO3` [Example 100428, (1S,3′R,6′R,7′S,8′E,11′S,12′R)-6-chloro-7′-methoxy-11′,12′-dimethyl-7′-(2-(1-piperidinyl)ethyl)-3,4-dihydro-2H,15′H-spiro[naphthalene-1,22′-[20]oxa[13]thia[1,14]diazatetracyclo [14.7.2.0~3,6~.0~19,24~]pentacosa[8,16,18,24]tetraen]-15′-one 13′,13′-dioxide], the IC50 in test [1] (setting [3]) amounted to 0.21 nM; in test [2] (setting [4]), 218 nM.
For `C[C@@H]1[C@@H](C)C/C=C/[C@]2(CN(Cc3ccncc3)CCO2)[C@@H]2CC[C@H]2CN2C[C@@]3(CCCc4cc(Cl)ccc43)COc3ccc(cc32)C(=O)NS1(=O)=O` [Example 136, (1S,3′R,6′R,7′R,8′E,11′S,12′R)-6-chloro-11′,12′-dimethyl-4″- (4-pyridinylmethyl)-3,4-dihydro-2H,15′H-dispiro[naphthalene-1,22′-[20]oxa[13]thia[1,14]diazatetracyclo [14.7.2.0~3,6~.0~19,24~]pentacosa[8,16,18,24]tetraene-7′,2″-[1,4]oxazinan]-15′-one 13′,13′-dioxide], the IC50 in test [1] (setting [5]) was 4.7 nM; in test [2] (setting [6]), 1020 nM.
On to `CCO[C@]1(CN2CCN3CCS(=O)(=O)C[C@@H]3C2)/C=C/C[C@H](C)[C@@H](C)S(=O)(=O)NC(=O)c2ccc3c(c2)N(C[C@@H]2CC[C@H]21)C[C@@]1(CCCc2cc(Cl)ccc21)CO3` [Example 122], for which the IC50 was determined as 0.087 nM in test [1] (setting [5]) and 138 nM in test [2] (setting [7]).
As for `CO[C@@]1(CN2CCN(C3CS(=O)(=O)C3)CC2)/C=C/C[C@H](C)[C@@H](C)S(=O)(=O)NC(=O)c2ccc3c(c2)N(C[C@@H]2CC[C@H]21)C[C@@]1(CCCc2cc(Cl)ccc21)CO3` [Example 339, (1S,3′R,6′R,7′S,8′E,11′S,12′R)-6-chloro-7′-((4-(1,1-dioxido-3-thietanyl)-1-piperazinyl)methyl)-7′-methoxy-11′,12′-dimethyl-3,4-dihydro-2H,15′H-spiro[naphthalene-1,22′-[20]oxa[13]thia[1,14]diazatetracyclo [14.7.2.0~3,6~.0~19,24~]pentacosa[8,16,18,24]tetraen]-15′-one 13′,13′-dioxide], the values for the IC50 in test [1] (setting [5]) and in test [2] (setting [6]) were 0.117 nM and 153 nM, respectively.
On to `COc1ncccc1[C@]1(OC)/C=C/C[C@H](C)[C@@H](C)S(=O)(=O)NC(=O)c2ccc3c(c2)N(C[C@@H]2CC[C@H]21)C[C@@]1(CCCc2cc(Cl)ccc21)CO3` [Example 100352, (1S,3′R,6′R,7′S,8′E,11′S,12′R)-6-chloro-7′-methoxy-7′-(2-methoxy-3-pyridinyl)-11′,12′-dimethyl-3,4-dihydro-2H,15′H-spiro[naphthalene-1,22′-[20]oxa[13]thia[1,14]diazatetracyclo [14.7.2.0~3,6~.0~19,24~]pentacosa[8,16,18,24]tetraen]-15′-one 13′,13′-dioxide], for which the values for the IC50 in test [1] (setting [3]) and in test [2] (setting [4]) were 2.75 nM and 246 nM, respectively.
Take `C[C@@H]1[C@@H](C)CCC[C@](O)(CC(=O)N(C)C(C)(C)C)[C@@H]2CC[C@H]2CN2C[C@@]3(CCCc4cc(Cl)ccc43)COc3ccc(cc32)C(=O)NS1(=O)=O` (single isomer, unassigned) [Example 100142]: the IC50 was 0.717 nM in test [1] (setting [3]) and 663 nM in test [2] (setting [8]).
For the molecule `C[C@@H]1[C@@H](C)CCC[C@@](O)(C2CCN(C)CC2)[C@@H]2CC[C@H]2CN2C[C@@]3(CCCc4cc(Cl)ccc43)COc3ccc(cc32)C(=O)NS1(=O)=O` [Example 100386, (1S,3′R,6′R,7′R,11′S,12′R)-6-chloro-7′-hydroxy-11′,12′-dimethyl-7′-(1-methyl-4-piperidinyl)-3,4-dihydro-2H,15′H-spiro[naphthalene-1,22′-[20]oxa[13]thia[1,14]diazatetracyclo [14.7.2.0~3,6~.0~19,24~]pentacosa[16,18,24]trien]-15′-one 13′,13′-dioxide], the IC50 in test [1] (setting [3]) turned out to be 4.02 nM; in test [2] (setting [8]), 7270 nM.

The record behind these values is US10821115B2, “Compounds that inhibit Mcl-1 protein” (priority 2017, dated 2020).
